For orientation: thermodynamic solubility means the concentration in solution at equilibrium with solid.

Each structure is given as a SMILES string. In brackets after ≈: the same amount, converted by molar mass.

Data on 89 compounds can be found in ChEMBL document CHEMBL3301361, “Experimental in vitro DMPK and physicochemical data on a set of publicly disclosed compounds”.

The nature of this data set: physchem. Conditions: pH 7.4 buffer.
With `Nc1nc2cc(Cl)ccc2n1CCCO`, the thermodynamic solubility came out at 1320 µM (≈ 298 µg/mL). As for `O=C(O)c1cc2ccccc2n1Cc1cccc(Cl)c1`, the solubility (thermodynamic) amounted to 1200 µM (≈ 344 µg/mL). For `O=C(O)c1cc2c(F)cccc2n1Cc1ccc(Cl)c(Cl)c1` the value was 525 µM (≈ 177 µg/mL); for `O=C(O)c1c(Cl)c2ccccc2n1Cc1ccc(Cl)c(Cl)c1`, 759 µM (≈ 269 µg/mL). For `CS(=O)(=O)c1ccc2c(c1)cc(C(=O)O)n2Cc1ccc(Cl)c(Cl)c1` the value was 1100 µM (≈ 437 µg/mL). The result for `O=C(c1ccc(F)cc1)C1CCN(C(=O)N2CCOCC2)CC1` reads 1150 µM (≈ 368 µg/mL). As to `COc1ccc(NC(=O)c2ccccn2)cc1`, the thermodynamic solubility is 676 µM (≈ 154 µg/mL). For `O=C(Nc1ccccc1)c1cc(-n2cnnc2)ccc1Cl`, the thermodynamic solubility stood at 407 µM (≈ 122 µg/mL). The result for `c1ccc(-c2cn3cccnc3n2)cc1` reads 676 µM (≈ 132 µg/mL); that for `COc1ccc(Cc2nnc(N)s2)cc1`, 363 µM (≈ 80.3 µg/mL); that for `CNC(=O)[C@@H](NC(=O)[C@H](CC(C)C)[C@H](OCc1cccc2cccnc12)C(=O)NO)C(C)(C)C`, 1000 µM (≈ 473 µg/mL). The result for `Nc1cccc(S(=O)(=O)Nc2ccccc2)c1` reads 1020 µM (≈ 254 µg/mL); that for `Nc1nnc(Cc2ccccc2)s1`, 1200 µM (≈ 230 µg/mL); that for `CNC(=O)[C@@H](NC(=O)[C@H](CC(C)C)[C@H](Sc1ccc(OC)c(OC)c1)C(=O)NO)C(C)(C)C`, 1290 µM (≈ 623 µg/mL). `Cc1ccc2c(c1)-c1ccccc1S(=O)(=O)N2` came in with a solubility (thermodynamic) of 631 µM (≈ 155 µg/mL). The result for `Nc1n[nH]c(S(=O)(=O)CCCc2ccccc2)n1` reads 575 µM (≈ 153 µg/mL). For `Clc1ccc(-c2nnc(CNC3CC3)o2)cc1` the value was 1230 µM (≈ 307 µg/mL).

The compound `Cn1cc(C(=O)CCCCOc2ccc(C(=O)O)cc2)cc1C=O` showed a solubility (thermodynamic) of 1200 µM (≈ 396 µg/mL).

For `O=S(=O)(Nc1ccncc1)c1ccccc1`, the solubility (thermodynamic) is 794 µM (≈ 186 µg/mL). In turn, `CC(C)(C)C(O)C(Cc1ccccc1Cl)n1cncn1` (centres undefined) came in with a thermodynamic solubility of 398 µM (≈ 117 µg/mL). For `CNC(=O)N1c2ccccc2C=Cc2ccccc21` the value was 380 µM (≈ 95.2 µg/mL); for `Cn1[nH]c(CSc2ccc(Cl)cc2)cc1=O`, 468 µM (≈ 119 µg/mL); for `O=c1cc(-c2cccnc2)[nH]c2ccccc12`, 1350 µM (≈ 300 µg/mL). The result for `CNC(=O)Cc1ccc2c(=O)cc(-c3cccnc3)[nH]c2c1` reads 457 µM (≈ 134 µg/mL); that for `O=C(Nc1ccccc1)Nc1ccncc1`, 1350 µM (≈ 288 µg/mL). The result for `O=C(c1ccccc1)C1CCN(C(=O)c2ccco2)CC1` reads 427 µM (≈ 121 µg/mL); that for `Cc1ccnc(NC(=O)CSc2ccccn2)c1`, 436 µM (≈ 113 µg/mL). Consider `O=[N+]([O-])c1ccc(CCl)cc1`, for which the solubility (thermodynamic) came out at 501 µM (≈ 86 µg/mL).

In turn, `COC[C@H](C)Oc1cc(O[C@@H](C)Cc2ccc(F)cc2)cc(C(=O)Nc2ccc(C(=O)O)cn2)c1` gave a thermodynamic solubility of 1260 µM (≈ 607 µg/mL). The result for `COC[C@H](C)Oc1cc(O[C@@H](C)Cc2ccccc2OC)cc(C(=O)Nc2ccc(C(=O)O)cn2)c1` reads 589 µM (≈ 291 µg/mL); that for `COC[C@H](C)Oc1cc(O[C@@H](C)Cc2cc(F)cc(F)c2)cc(C(=O)Nc2ccc(C(=O)O)cn2)c1`, 646 µM (≈ 323 µg/mL); that for `COC[C@H](C)Oc1cc(Oc2cccc(Cl)c2)cc(C(=O)Nc2ccc(C(=O)O)cn2)c1`, 1170 µM (≈ 537 µg/mL).

Compound `Cc1noc(C)c1CCC1CCN(S(=O)(=O)CC2(N(O)C=O)CCOC(C)(C)C2)CC1` (centres undefined) had a thermodynamic solubility of 851 µM (≈ 389 µg/mL). The result for `Cc1cc(O)nc(SCC(=O)c2ccccc2)n1` reads 708 µM (≈ 184 µg/mL); that for `N#Cc1ccccc1COc1cc(OCCCN2CCCC2)ccc1C(=O)Nc1cccc(O)c1`, 363 µM (≈ 171 µg/mL); that for `O=C(Nc1cccc(O)c1)c1ccc(OCCCN2CCCC2)cc1OCc1ccccn1`, 513 µM (≈ 230 µg/mL). For `O=C(Nc1ccccc1)c1ccc(OCCCN2CCCC2)cc1OCc1cccnc1` the value was 398 µM (≈ 172 µg/mL); for `CNC(=O)CCc1nc(-c2ccc(OC)cc2)no1`, 912 µM (≈ 238 µg/mL). For `Cc1[nH]c2ccccc2c1CC#N` the value was 1020 µM (≈ 174 µg/mL); for `CC(C)Oc1cc(OCCc2ccncc2)cc(C(=O)Nc2ccc(C(=O)O)cn2)c1`, 1070 µM (≈ 452 µg/mL). `CC(=O)N1CCC(NC(=O)c2ccc(Oc3ccc(C#C[C@]4(O)CN5CCC4CC5)cc3)cc2)CC1` returned a thermodynamic solubility of 646 µM (≈ 315 µg/mL). The result for `CCN(C(=O)Cc1ccc(S(C)(=O)=O)cc1)C1CCN(CCC(c2ccccc2)N2CCN(c3ccccc3)CC2)CC1` (centres undefined) reads 692 µM (≈ 417 µg/mL); that for `CCN(C(=O)Cc1ccc(S(C)(=O)=O)cc1)C1CCN(CC[C@@H](c2ccccc2)N2CCN(S(=O)(=O)CC(F)(F)F)CC2)CC1`, 490 µM (≈ 330 µg/mL); that for `CCN(C(=O)Cc1ccc(S(C)(=O)=O)cc1)C1CCN(CCC(c2ccccc2)C2CCN(S(=O)(=O)CC)CC2)CC1` (centres undefined), 457 µM (≈ 282 µg/mL). The result for `COc1ccc(Cl)c(Nc2ncnc3cc(OCCCN4CCN(C)CC4)cc(OC(C)C)c23)n1` reads 347 µM (≈ 174 µg/mL). For `CC(c1ccccc1)n1cnc2ccccc2c1=O` (centres undefined) the value was 468 µM (≈ 117 µg/mL); for `Cc1ccc(NC(=O)c2ccnc(N3CCOCC3)c2)cc1-n1c(C)nc2ccc(N3CCN(C)CC3)cc2c1=O`, 851 µM (≈ 471 µg/mL). With `CCN1CCC[C@@H](C(=O)N2CCN(C(=O)Nc3ccc(Cl)c(Cl)c3)CC2)C1`, the solubility (thermodynamic) was found to be 1050 µM (≈ 433 µg/mL).

`Cc1sc(N2CCN(C(=O)[C@@H]3CCCC[C@H]3C(=O)NC3(C#N)CC3)CC2)nc1C(F)(F)F` returned a thermodynamic solubility of 1070 µM (≈ 503 µg/mL). The result for `CNC(=O)[C@@H](C)N(C)Cc1cc2c(Nc3cccc(Cl)c3F)ncnc2cc1OC` reads 646 µM (≈ 279 µg/mL); that for `COc1ccc(Cn2c(CCc3c[nH]c4ccccc34)nnc2[C@@H](Cc2c[nH]c3ccccc23)NC(=O)C2CCNCC2)c(OC)c1`, 550 µM (≈ 347 µg/mL); that for `COc1cc2c(Nc3cc(CC(=O)Nc4cccc(F)c4F)[nH]n3)ncnc2cc1OCCCN1CCC[C@H]1CO`, 1000 µM (≈ 568 µg/mL).

As to `O=C(O)[C@H](Cc1cccc(F)c1)N1CCC(CN2CCC(Oc3ccc(Cl)c(Cl)c3)CC2)CC1`, the solubility (thermodynamic) stood at 417 µM (≈ 212 µg/mL). The result for `CS(=O)(=O)c1ccc2c3c([nH]c2c1)CCN(C(=O)[C@@H]1CCCC[C@H]1C(=O)NC1(C#N)CC1)C3` reads 912 µM (≈ 427 µg/mL); that for `Cc1cccc2c3c([nH]c12)CCN(C(=O)[C@@H]1CCCC[C@H]1C(=O)NC1(C#N)CC1)C3`, 513 µM (≈ 207 µg/mL). Compound `N#CC1(NC(=O)[C@@H]2CCCC[C@H]2C(=O)N2CCc3oc4ccccc4c3C2)CC1` had a thermodynamic solubility of 575 µM (≈ 225 µg/mL). The compound `N#CCNC(=O)[C@@H]1CCCC[C@H]1C(=O)N1CCN(c2ccccc2)CC1` came in with a thermodynamic solubility of 631 µM (≈ 224 µg/mL). For `C[C@H](C#N)NC(=O)[C@@H]1CCCC[C@H]1C(=O)N1CCc2[nH]c3ccc(F)cc3c2C1` the value was 457 µM (≈ 181 µg/mL); for `N#CC1(NC(=O)[C@@H]2CCCC[C@H]2C(=O)N2CCc3[nH]c4ccccc4c3C2)CC1`, 912 µM (≈ 356 µg/mL). The result for `N#CC1(NC(=O)[C@@H]2CCCC[C@H]2C(=O)N2CCc3[nH]c4c(F)cccc4c3C2)CC1` reads 479 µM (≈ 195 µg/mL); that for `N#CC1(NC(=O)[C@@H]2CCCC[C@H]2C(=O)N2CCc3[nH]c4cc(F)ccc4c3C2)CC1`, 537 µM (≈ 219 µg/mL). The result for `COc1ccc2[nH]c3c(c2c1)CN(C(=O)[C@@H]1CCCC[C@H]1C(=O)NC1(C#N)CC1)CC3` reads 813 µM (≈ 342 µg/mL).

Regarding `Cc1noc2cc(N3CCN(C(=O)[C@@H]4CCCC[C@H]4C(=O)NC4(C#N)CC4)[C@H](C)C3)ccc12`, the solubility (thermodynamic) was determined as 603 µM (≈ 271 µg/mL). Take `COc1ccc(N2CCN(C(=O)[C@@H]3CCCC[C@H]3C(=O)NCC#N)CC2)cc1`: the solubility (thermodynamic) was 389 µM (≈ 150 µg/mL). On to `CN1CCC(Oc2cc(OCCF)cc3ncnc(Nc4c(Cl)ccc5c4OCO5)c23)CC1`, for which the thermodynamic solubility is 759 µM (≈ 360 µg/mL). The result for `CC1(c2c(C(=O)NC3C4CC5CC(C4)CC3C5)cnn2-c2ccc(C(=O)O)cc2)CC1` (centres undefined) reads 661 µM (≈ 277 µg/mL); that for `CCCSc1c(C(=O)NC2CCCCC2)cnn1C`, 1230 µM (≈ 346 µg/mL). The result for `Cc1ccc2nc(C)c(-c3ccnc(N)n3)n2c1` reads 457 µM (≈ 109 µg/mL).

`Fc1ccc(CN2CCN(C3=Nn4c(nnc4C(F)(F)F)CC3)CC2)cc1` displayed a thermodynamic solubility of 525 µM (≈ 201 µg/mL).

Take `CC(C)N1CCN(Cc2cnc(-c3ccc(C(=O)Nc4ccccc4N)cc3)c(C#N)c2)CC1`: the solubility (thermodynamic) amounted to 1350 µM (≈ 613 µg/mL). For `Oc1ccc(-n2ccnc2)cc1` the value was 1260 µM (≈ 202 µg/mL); for `COc1cc2c(Nc3ccc(Cl)cc3F)ncnc2cc1OC/C=C/CN1CCCC1`, 759 µM (≈ 336 µg/mL). For `O=C(O)COc1ccc(OCCNC[C@H](O)COc2ccccc2)cc1` the value was 1020 µM (≈ 370 µg/mL). For `O=c1c2ccccc2[nH]n1CCc1ccccc1` the value was 550 µM (≈ 131 µg/mL); for `CC(C)(C)c1cc(=O)n(-c2ccccc2)[nH]1`, 708 µM (≈ 153 µg/mL); for `CNC(=O)[C@@H](NC(=O)[C@H](CC(C)C)[C@H](OCc1cc2c(=O)[nH]c(C)nc2cc1Br)C(=O)NO)C(C)(C)C`, 457 µM (≈ 266 µg/mL). Consider `COc1cc2ncnc(Nc3cccc(Cl)c3F)c2cc1CN(C)C1(C(N)=O)CCN(C(C)C)CC1`, for which the solubility (thermodynamic) amounted to 550 µM (≈ 283 µg/mL). For `Cc1cc(C)c(C(=O)N[C@@H](CNC(=O)CO[C@@H]2C[C@@H](CNc3ccccn3)N(C(=O)OCc3ccccc3)C2)C(=O)O)c(C)c1` the value was 389 µM (≈ 240 µg/mL); for `Cc1cc(C)cc(-c2[nH]c3sc(C(C)(C)C(=O)N4C5CCC4CC5)cc3c2CCN2CCN(CC(O)CN3CCNCC3)CC2)c1` (centres undefined), 427 µM (≈ 276 µg/mL); for `O=C1NCCc2c1[nH]c1ccccc21`, 1260 µM (≈ 234 µg/mL). For `COCCNS(=O)(=O)c1ccc(Nc2nccc(-c3cnc(C)n3C(C)C)n2)cc1` the value was 363 µM (≈ 156 µg/mL); for `O=C1CSc2ccccc2N1`, 871 µM (≈ 144 µg/mL); for `CCCNc1nc2ccccc2c(=O)[nH]1`, 537 µM (≈ 109 µg/mL). For `CC(=O)Nc1nc2c(s1)C(=O)NCCC2` the value was 1350 µM (≈ 304 µg/mL). `CCSc1nc2c(N)ncnc2[nH]1` registered a solubility (thermodynamic) of 436 µM (≈ 85.2 µg/mL). For `COc1cc2ncnc(Nc3ccc(F)c(Cl)c3)c2cc1OCCCN(C)C` the value was 1290 µM (≈ 522 µg/mL). For `CC(=O)Nc1ccc(Br)cc1` the value was 832 µM (≈ 178 µg/mL).

For the compound `CN(C)C(=N)c1ccc(C(=O)N2CCN(S(=O)(=O)c3ccc4cc(Br)ccc4c3)CC2)cc1`, the solubility (thermodynamic) is 1320 µM (≈ 698 µg/mL). For `COc1ccc(Br)c(C=O)c1O` the value was 468 µM (≈ 108 µg/mL).
